Measurements as given in patent US20240059688A1, “CONOLIDINE ANALOGUES AS SELECTIVE ACKR3 MODULATORS FOR THE TREATMENT OF CANCER” (Luxembourg Institute of Health (LIH), priority 2020, published 2024).

How the values were obtained:
Assay type in all cases: cell-based
ACKR3 = ACKR3 (Homo sapiens, UniProt P25106); experiment: NanoBiT-based β-arrestin-2 recruitment assay, human ACKR3 in U87 cells; parameters: expressed in transfected cells; host or cells: U87; conditions: for agonist efficacy at hACKR3 compared to CXCL-12: NanoBiT β-arrestin recruitment, reference ligand CXCL-12; for EC50: NanoBiT, U87 cells, FIG. 1 section A, read-out: EC50, β-arrestin-2 recruitment to hACKR3
Experimental: Concentration-response studies were performed with molecules WW-1 (conolidine) and WW-12 on the human and mouse ACKR3 receptors in U87 cells using a NanoBiT-based β-arrestin-2 recruitment assay […] to evaluate their efficacy and potency towards the two receptors.
(§1) Ligand-induced β-arrestin recruitment to chemokine and opioid receptors was monitored by NanoLuc complementation assay (NanoBiT, Promega). In brief, 1.2×10^6 U87 cells were plated in 10-cm culture dishes and 48 hours later co-transfected with pNBe vectors encoding GPCRs (ACKR3, MOR, DOR, KOR, or NOP) C-terminally tagged with SmBiT and human β-arrestin-1 (arrestin-2) or β-arrestin-2 (arrestin-3) N-terminally fused to LgBiT. 48 hours post-transfection cells were harvested, incubated 25 minutes at 37° C. with Nano-Glo Live Cell substrate diluted 200-fold and distributed into white 96-well plates (5×10^4 cells per well). Ligand-induced, β-arrestin to GPCRs was evaluated with a Mithras LB940 luminometer (Berthold Technologies, running on MicroWin 2010 5.19 software (Mikrotek Laborsysteme)) for 20 minutes.
For concentration-response curves (FIG. 2), the signal recorded with a saturating concentration of full agonist for each receptor was set as 100%. To evaluate the antagonist properties of ligands, full agonists of each receptor (50 nM BAM22 for MOR, 50 nM dynorphin A for KOR, 70 nM met-enkephalin for DOR, 70 nM nociceptin for NOP and 4 nM CXCL12 for ACKR3) were added after the 20-minute incubation with the ligands.

KOR = KOR (Homo sapiens, UniProt P41145); experiment: NanoBiT-based β-arrestin recruitment assay, KOR; parameters: expressed in transfected cells; host or cells: U87; conditions: concentration range 0.15 nM to 80 μM; reference Dynorphin A
Experimental: (§2) The ability of the different molecules to activate the four opioid receptors MOR, DOR, KOR and NOP that are known to mediate in vivo analgesic effects was tested using the NanoBiT-based β-arrestin-2 recruitment assay in a concentration range of 0.15 nM to 80 μM. For each of these receptors a reference ligand corresponding to an endogenous opioid peptide i.e. Met-enkephalin, BAM22, Dynorphin A and Nociceptin, respectively was included.
as §1
(§3) For concentration-response curves (FIG. 2), the signal recorded with a saturating concentration of full agonist for each receptor was set as 100%. […]

human CXCR4 = molecular target: T1, human CXCR4 (Homo sapiens, UniProt P61073); experiment: CXCR4 β-arrestin recruitment assay (PathHunter); conditions: human CXCR4-C2Cl2 cells, relative to CXCL-12
T1 construct: host or cells: C2C12
Summary of the method: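 Agonist mode in PathHunter CHO cells expressing human ACKR3-β-arrestin-2, compounds added in DPBS/1% DMSO for 1.5 hr at 37° C, then detection 1 hr at room temperature, luminescence read. CXCR4 run in C2C12 cells with a 3 hr Cell Plating Reagent 4 preincubation. EC50 and % Emax from three-parameter fits, CXCL-12 as reference agonist; ≥2 independent experiments in duplicate.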

NOP = molecular target: T2, NOP (Homo sapiens, UniProt P41146); experiment: NanoBiT-based β-arrestin-2 recruitment assay, NOP; conditions: concentration range 0.15 nM to 80 μM; reference Nociceptin
T2 construct: expressed in transfected cells; host or cells: U87
Experimental: as §2, §1, §3

ACKR3, sequence (P25106 whole entry): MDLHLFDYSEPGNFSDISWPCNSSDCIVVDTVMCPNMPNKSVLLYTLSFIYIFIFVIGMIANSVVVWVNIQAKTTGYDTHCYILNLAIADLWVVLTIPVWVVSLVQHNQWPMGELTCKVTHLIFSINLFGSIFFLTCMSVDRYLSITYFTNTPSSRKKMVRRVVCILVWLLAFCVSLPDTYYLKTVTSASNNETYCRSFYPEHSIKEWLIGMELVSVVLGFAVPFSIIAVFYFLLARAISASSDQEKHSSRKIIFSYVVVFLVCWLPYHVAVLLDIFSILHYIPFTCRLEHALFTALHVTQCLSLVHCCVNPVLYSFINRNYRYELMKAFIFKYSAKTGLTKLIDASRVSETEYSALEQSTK
ACKR3, sequence (P32121 whole entry partner): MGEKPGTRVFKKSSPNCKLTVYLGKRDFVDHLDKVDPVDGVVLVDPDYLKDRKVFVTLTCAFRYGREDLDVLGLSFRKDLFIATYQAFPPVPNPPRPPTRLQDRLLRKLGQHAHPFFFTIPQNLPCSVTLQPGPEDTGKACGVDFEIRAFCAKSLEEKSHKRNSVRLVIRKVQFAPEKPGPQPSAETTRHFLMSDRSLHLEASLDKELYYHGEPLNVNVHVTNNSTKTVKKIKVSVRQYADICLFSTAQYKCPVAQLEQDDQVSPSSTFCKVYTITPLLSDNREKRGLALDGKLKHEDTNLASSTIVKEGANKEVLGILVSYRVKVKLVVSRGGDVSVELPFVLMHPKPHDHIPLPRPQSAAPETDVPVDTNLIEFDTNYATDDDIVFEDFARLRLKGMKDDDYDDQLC
KOR, sequence (P41145 whole entry): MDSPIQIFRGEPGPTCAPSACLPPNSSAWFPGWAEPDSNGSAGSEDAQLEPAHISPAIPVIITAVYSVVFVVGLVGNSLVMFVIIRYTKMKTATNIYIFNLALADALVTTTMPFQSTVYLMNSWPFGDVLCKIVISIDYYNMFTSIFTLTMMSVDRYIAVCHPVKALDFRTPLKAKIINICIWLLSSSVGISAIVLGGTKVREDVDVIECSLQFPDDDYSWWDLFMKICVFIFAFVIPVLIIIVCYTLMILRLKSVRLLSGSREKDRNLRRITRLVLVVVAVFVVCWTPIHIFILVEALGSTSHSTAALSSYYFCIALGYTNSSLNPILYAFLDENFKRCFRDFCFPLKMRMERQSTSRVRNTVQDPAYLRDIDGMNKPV
T2 sequence (P41146 whole entry): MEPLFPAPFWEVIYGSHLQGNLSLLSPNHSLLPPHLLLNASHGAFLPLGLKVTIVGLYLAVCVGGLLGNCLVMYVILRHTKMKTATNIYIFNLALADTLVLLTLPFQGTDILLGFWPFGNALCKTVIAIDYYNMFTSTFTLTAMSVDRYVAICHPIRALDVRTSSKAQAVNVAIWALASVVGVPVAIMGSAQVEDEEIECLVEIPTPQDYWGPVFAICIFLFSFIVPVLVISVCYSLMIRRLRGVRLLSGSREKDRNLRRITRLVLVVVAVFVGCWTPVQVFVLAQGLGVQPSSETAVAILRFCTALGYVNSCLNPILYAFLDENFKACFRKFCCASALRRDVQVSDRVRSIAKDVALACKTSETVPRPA
T1 sequence (P61073 whole entry): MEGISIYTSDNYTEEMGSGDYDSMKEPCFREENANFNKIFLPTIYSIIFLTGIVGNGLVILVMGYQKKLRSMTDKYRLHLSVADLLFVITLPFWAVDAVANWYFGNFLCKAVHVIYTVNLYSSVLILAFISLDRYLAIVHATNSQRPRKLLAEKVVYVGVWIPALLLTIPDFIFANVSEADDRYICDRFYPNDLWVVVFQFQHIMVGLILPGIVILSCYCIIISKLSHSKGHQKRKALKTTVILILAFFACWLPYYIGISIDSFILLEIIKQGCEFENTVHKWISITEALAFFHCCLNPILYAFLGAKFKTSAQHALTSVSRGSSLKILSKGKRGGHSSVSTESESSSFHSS

Row | agonist efficacy at hACKR3 compared to CXCL-12 (ACKR3) | agonist efficacy at hACKR3 compared to CXCL-12 (ACKR3; listed as conolidine) | EC50 (ACKR3) | activation of KOR (β-arrestin recruitment) (KOR) | CXCR4 β-arrestin % CXCL-12Emax (n = 2) (human CXCR4) | activation of NOP (β-arrestin-2 recruitment) (NOP) | Compound
1 | full agonists | full agonist | 16.6 µM | not active | 3% | not active | C/C=C1/CN2CC[C@H]1C(=O)c1[nH]c3ccccc3c1C2 [WW-1, (4E,5R)-4-ethylidene-1,4,5,7-tetrahydro-2,5-ethanoazocino[4,3-b]indol-6(3H)-one]
2 | full agonists |  | 0.7 µM | not active | 4% | not active | C/C=C1/CN(CCCCC)CC[C@H]1C(=O)c1cc2ccccc2[nH]1 [WW-12, [(3E,4R)-3-ethylidene-1-pentylpiperidin-4-yl](1H-indol-2-yl)methanone]
